From publication PMC5529566, “The cryo-EM structure of gastric H^+,K^+-ATPase with bound BYK99, a high-affinity member of K^+-competitive, imidazo[1,2-a]pyridine inhibitors” (Scientific Reports, 2017)

Assays:
H^+,K^+-ATPase WT = target: T1, H^+,K^+-ATPase WT (Sus scrofa, UniProt P19156); experiment: K^+-competitive inhibition of H^+,K^+-ATPase activity, 96-well ATPase assay, wild-type; format: biochemical, pig; conditions: WT
T1 construct: made in house; host or cells: HEK293S GnT1- cells (BacMam baculovirus transduction); permeabilised membrane fractions

H^+,K^+-ATPase D136A = H^+,K^+-ATPase D136A (Sus scrofa, UniProt P19156, D137A); experiment: ATPase assay, D136A mutant
H^+,K^+-ATPase D136L = H^+,K^+-ATPase D136L (Sus scrofa, UniProt P19156, D137L); experiment: ATPase assay, D136L mutant
H^+,K^+-ATPase D136I = H^+,K^+-ATPase D136I (Sus scrofa, UniProt P19156, D137I); experiment: ATPase assay, D136I mutant
H^+,K^+-ATPase D136F = H^+,K^+-ATPase D136F (Sus scrofa, UniProt P19156, D137F); experiment: ATPase assay, D136F mutant
H^+,K^+-ATPase D137A = H^+,K^+-ATPase D137A (Sus scrofa, UniProt P19156, D138A); experiment: ATPase assay, D137A mutant
H^+,K^+-ATPase D137L = H^+,K^+-ATPase D137L (Sus scrofa, UniProt P19156, D138L); experiment: ATPase assay, D137L mutant
H^+,K^+-ATPase D137I = H^+,K^+-ATPase D137I (Sus scrofa, UniProt P19156, D138I); experiment: ATPase assay, D137I mutant
H^+,K^+-ATPase D137F = H^+,K^+-ATPase D137F (Sus scrofa, UniProt P19156, D138F); experiment: ATPase assay, D137F mutant
H^+,K^+-ATPase N138A = H^+,K^+-ATPase N138A (Sus scrofa, UniProt P19156, N139A); experiment: ATPase assay, N138A mutant
H^+,K^+-ATPase N138L = H^+,K^+-ATPase N138L (Sus scrofa, UniProt P19156, N139L); experiment: ATPase assay, N138L mutant
H^+,K^+-ATPase N138I = H^+,K^+-ATPase N138I (Sus scrofa, UniProt P19156, N139I); experiment: ATPase assay, N138I mutant
H^+,K^+-ATPase N138F = H^+,K^+-ATPase N138F (Sus scrofa, UniProt P19156, N139F); experiment: ATPase assay, N138F mutant
H^+,K^+-ATPase L139A = H^+,K^+-ATPase L139A (Sus scrofa, UniProt P19156, L140A); experiment: ATPase assay, L139A mutant
H^+,K^+-ATPase L139I = H^+,K^+-ATPase L139I (Sus scrofa, UniProt P19156, L140I); experiment: ATPase assay, L139I mutant
H^+,K^+-ATPase L139F = H^+,K^+-ATPase L139F (Sus scrofa, UniProt P19156, L140F); experiment: ATPase assay, L139F mutant
H^+,K^+-ATPase Y140A = H^+,K^+-ATPase Y140A (Sus scrofa, UniProt P19156, Y141A); experiment: ATPase assay, Y140A mutant
H^+,K^+-ATPase Y140L = H^+,K^+-ATPase Y140L (Sus scrofa, UniProt P19156, Y141L); experiment: ATPase assay, Y140L mutant
H^+,K^+-ATPase Y140I = H^+,K^+-ATPase Y140I (Sus scrofa, UniProt P19156, Y141I); experiment: ATPase assay, Y140I mutant
H^+,K^+-ATPase Y140F = H^+,K^+-ATPase Y140F (Sus scrofa, UniProt P19156, Y141F); experiment: ATPase assay, Y140F mutant
H^+,K^+-ATPase L141I = H^+,K^+-ATPase L141I (Sus scrofa, UniProt P19156, L142I); experiment: ATPase assay, L141I mutant
H^+,K^+-ATPase A335G = H^+,K^+-ATPase A335G (Sus scrofa, UniProt P19156, A336G); experiment: ATPase assay, A335G mutant
H^+,K^+-ATPase Y799A = H^+,K^+-ATPase Y799A (Sus scrofa, UniProt P19156, Y800A); experiment: ATPase assay, Y799A mutant
H^+,K^+-ATPase Y799F = H^+,K^+-ATPase Y799F (Sus scrofa, UniProt P19156, Y800F); experiment: ATPase assay, Y799F mutant
H^+,K^+-ATPase L809F = H^+,K^+-ATPase L809F (Sus scrofa, UniProt P19156, L810F); experiment: ATPase assay, L809F mutant
[1] = target: H^+,K^+-ATPase A335C/C813A (Sus scrofa, UniProt P19156, A336C/C814A); experiment: ATPase assay, A335C/C813A mutant
H^+,K^+-ATPase = H^+,K^+-ATPase (Sus scrofa, UniProt P19156); experiment: Dose-dependent inhibition of H^+,K^+-ATPase activity in the presence of 10 mM KCl
Procedure: Reactions were initiated by incubating at 37 °C using a thermal cycler, and maintained for 1 to 5 h (depending on the activity). Reactions were terminated by withdrawing 40 μL from the 80 μL reactant, and mixing with 80 μL of stop solution comprising 6% ascorbic acid and 2% ammonium molybdate in 1 N HCl, followed by the addition of 120 μL of 2% sodium arsenate, 2% sodium citrate, and 2% acetic acid. The amount of released inorganic phosphate was determined colorimetrically[39] from absorbance at 850 nm by the microplate reader (TECAN).

H^+,K^+-ATPase N138A, sequence (P19156 whole entry N139A): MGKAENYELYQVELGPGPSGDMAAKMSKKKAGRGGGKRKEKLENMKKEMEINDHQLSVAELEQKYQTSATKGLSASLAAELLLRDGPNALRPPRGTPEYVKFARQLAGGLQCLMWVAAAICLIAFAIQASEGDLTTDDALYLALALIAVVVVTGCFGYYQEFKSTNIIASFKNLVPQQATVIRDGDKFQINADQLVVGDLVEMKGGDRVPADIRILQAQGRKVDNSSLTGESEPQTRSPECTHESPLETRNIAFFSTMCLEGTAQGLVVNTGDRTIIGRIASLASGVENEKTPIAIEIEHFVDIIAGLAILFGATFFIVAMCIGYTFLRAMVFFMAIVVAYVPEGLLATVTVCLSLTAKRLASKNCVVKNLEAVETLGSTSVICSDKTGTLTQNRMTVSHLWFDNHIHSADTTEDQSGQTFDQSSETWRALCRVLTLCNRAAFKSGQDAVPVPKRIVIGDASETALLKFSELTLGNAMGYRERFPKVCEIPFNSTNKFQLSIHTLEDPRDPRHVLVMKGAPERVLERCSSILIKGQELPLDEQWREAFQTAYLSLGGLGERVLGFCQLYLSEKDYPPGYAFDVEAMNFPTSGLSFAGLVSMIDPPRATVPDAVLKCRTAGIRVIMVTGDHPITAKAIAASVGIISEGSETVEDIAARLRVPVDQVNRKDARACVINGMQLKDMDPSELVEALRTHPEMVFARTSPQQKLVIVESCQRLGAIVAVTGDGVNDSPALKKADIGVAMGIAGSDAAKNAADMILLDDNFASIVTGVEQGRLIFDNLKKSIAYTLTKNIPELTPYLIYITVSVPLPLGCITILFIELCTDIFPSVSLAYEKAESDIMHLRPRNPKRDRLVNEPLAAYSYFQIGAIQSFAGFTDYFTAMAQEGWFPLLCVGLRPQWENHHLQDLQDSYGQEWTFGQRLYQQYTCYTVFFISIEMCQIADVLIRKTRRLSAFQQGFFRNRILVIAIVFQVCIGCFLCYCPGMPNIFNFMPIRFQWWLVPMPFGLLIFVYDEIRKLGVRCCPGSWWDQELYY
H^+,K^+-ATPase N138A, sequence (P18434 whole entry partner): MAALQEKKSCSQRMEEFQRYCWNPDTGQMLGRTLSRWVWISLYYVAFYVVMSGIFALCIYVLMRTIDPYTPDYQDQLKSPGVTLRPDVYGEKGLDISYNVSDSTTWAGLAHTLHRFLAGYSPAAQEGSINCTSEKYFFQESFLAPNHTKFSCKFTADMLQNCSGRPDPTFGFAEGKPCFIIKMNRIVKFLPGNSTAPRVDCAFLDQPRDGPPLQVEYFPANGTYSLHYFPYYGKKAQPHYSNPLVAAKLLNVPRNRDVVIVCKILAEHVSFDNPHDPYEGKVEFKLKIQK
H^+,K^+-ATPase D137L, sequence (P19156 whole entry D138L): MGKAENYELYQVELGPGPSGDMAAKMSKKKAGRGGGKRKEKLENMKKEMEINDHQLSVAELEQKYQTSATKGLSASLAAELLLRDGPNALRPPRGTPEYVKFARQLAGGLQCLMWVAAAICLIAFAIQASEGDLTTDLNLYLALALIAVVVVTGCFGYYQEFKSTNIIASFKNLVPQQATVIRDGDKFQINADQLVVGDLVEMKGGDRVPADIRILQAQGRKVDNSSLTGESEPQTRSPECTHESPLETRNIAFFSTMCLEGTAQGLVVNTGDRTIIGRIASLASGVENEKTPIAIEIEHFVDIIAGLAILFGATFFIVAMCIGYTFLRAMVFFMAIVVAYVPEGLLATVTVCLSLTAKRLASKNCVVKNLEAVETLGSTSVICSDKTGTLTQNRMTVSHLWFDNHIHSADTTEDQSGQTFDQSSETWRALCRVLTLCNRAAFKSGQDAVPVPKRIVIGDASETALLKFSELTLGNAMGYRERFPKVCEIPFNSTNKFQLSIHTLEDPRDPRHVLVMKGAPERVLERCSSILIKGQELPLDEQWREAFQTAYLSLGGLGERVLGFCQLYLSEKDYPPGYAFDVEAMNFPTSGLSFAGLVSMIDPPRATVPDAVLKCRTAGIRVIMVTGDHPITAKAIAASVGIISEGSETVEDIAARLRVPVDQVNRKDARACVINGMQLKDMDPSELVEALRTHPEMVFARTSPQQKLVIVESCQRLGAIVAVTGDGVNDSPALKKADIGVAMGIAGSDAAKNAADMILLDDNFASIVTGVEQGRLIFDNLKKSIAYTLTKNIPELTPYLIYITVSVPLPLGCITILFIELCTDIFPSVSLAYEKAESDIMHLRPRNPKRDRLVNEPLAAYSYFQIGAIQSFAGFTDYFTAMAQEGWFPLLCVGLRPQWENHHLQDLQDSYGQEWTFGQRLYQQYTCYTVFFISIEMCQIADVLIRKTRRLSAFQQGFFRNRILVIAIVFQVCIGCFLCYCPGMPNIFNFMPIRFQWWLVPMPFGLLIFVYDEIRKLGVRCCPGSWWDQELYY
H^+,K^+-ATPase D137L, sequence (P18434 whole entry partner): as the sequence (P18434 whole entry partner) above
H^+,K^+-ATPase Y140L, sequence (P19156 whole entry Y141L): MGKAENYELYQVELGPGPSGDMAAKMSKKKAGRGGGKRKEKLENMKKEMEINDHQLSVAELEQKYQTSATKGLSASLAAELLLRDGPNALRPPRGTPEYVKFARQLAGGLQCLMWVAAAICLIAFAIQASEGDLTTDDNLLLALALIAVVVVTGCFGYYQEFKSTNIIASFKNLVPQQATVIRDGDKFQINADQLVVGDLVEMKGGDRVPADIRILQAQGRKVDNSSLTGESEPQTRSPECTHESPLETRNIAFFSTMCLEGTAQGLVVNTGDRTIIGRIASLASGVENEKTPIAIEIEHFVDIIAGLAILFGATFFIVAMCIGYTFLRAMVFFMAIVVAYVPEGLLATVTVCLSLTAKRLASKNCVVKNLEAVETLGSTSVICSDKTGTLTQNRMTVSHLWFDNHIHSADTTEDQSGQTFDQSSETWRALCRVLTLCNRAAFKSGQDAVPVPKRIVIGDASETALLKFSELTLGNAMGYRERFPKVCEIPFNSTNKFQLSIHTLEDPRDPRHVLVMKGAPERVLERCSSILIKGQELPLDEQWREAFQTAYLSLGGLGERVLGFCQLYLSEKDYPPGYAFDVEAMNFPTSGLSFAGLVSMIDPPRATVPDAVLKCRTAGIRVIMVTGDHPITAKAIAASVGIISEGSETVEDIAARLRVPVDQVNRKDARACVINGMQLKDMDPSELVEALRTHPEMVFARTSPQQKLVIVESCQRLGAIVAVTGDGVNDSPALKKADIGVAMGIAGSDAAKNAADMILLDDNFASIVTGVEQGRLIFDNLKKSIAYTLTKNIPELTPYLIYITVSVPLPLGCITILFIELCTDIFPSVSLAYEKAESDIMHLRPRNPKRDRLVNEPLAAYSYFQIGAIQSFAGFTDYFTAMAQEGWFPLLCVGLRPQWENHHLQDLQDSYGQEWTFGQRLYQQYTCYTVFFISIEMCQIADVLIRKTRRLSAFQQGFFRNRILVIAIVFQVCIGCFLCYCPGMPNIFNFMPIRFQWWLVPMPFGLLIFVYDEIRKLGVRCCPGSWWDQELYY
H^+,K^+-ATPase Y140L, sequence (P18434 whole entry partner): as the sequence (P18434 whole entry partner) above
T1 sequence (P19156 whole entry): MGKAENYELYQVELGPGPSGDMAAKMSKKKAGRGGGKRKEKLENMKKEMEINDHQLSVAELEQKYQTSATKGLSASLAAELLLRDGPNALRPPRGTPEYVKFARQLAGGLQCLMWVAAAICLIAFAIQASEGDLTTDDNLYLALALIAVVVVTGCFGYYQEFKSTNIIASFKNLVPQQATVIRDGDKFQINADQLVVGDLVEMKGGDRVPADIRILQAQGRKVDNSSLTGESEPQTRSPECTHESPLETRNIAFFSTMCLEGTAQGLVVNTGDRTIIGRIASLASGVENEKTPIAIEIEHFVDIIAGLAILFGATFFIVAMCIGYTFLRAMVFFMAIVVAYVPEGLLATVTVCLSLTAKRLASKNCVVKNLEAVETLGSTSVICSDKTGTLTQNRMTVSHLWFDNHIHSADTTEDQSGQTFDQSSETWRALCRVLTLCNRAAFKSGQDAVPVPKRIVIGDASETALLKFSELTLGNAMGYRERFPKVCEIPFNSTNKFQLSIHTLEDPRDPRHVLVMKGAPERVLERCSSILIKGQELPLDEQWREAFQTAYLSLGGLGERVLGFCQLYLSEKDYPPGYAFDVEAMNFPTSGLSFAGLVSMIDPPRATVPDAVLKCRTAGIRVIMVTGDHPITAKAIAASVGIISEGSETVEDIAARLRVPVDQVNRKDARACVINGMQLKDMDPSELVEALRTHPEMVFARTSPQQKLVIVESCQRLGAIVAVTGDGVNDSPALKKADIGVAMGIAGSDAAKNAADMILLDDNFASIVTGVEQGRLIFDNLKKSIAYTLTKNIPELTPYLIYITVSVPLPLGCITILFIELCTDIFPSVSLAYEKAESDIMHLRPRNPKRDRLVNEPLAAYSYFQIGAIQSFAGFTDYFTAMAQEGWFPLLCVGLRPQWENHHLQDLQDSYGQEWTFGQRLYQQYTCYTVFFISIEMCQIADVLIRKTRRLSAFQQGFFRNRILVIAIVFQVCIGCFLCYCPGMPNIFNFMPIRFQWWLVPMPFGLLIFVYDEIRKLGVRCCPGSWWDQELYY
T1 sequence (P18434 whole entry partner): as the sequence (P18434 whole entry partner) above

- -fold increase in K i compared with wild-type (H^+,K^+-ATPase WT): 1.0 fold
- Ki (H^+,K^+-ATPase WT; global fitting, mean ± SEM): 11 ± 0.1 µM
- Ki (H^+,K^+-ATPase D136A): 11 ± 1 µM
- -fold increase in K i compared with wild-type (H^+,K^+-ATPase D136A; D136A): 1.0 fold
- Ki (H^+,K^+-ATPase D136L): 5.4 ± 0.5 µM
- -fold increase in K i compared with wild-type (H^+,K^+-ATPase D136L; D136L): 0.5 fold
- Ki (H^+,K^+-ATPase D136I): 6.8 ± 0.6 µM
- -fold increase in K i compared with wild-type (H^+,K^+-ATPase D136I; D136I): 0.6 fold
- Ki (H^+,K^+-ATPase D136F): 6.7 ± 0.5 µM
- -fold increase in K i compared with wild-type (H^+,K^+-ATPase D136F; D136F): 0.6 fold
- Ki (H^+,K^+-ATPase D137A): 61 ± 7 µM
- -fold increase in K i compared with wild-type (H^+,K^+-ATPase D137A; D137A): 5.5 fold
- Ki (H^+,K^+-ATPase D137L): 270 ± 100 µM
- -fold increase in K i compared with wild-type (H^+,K^+-ATPase D137L; D137L): 25 fold
- Ki (H^+,K^+-ATPase D137I): 170 ± 40 µM
- -fold increase in K i compared with wild-type (H^+,K^+-ATPase D137I; D137I): 16 fold
- Ki (H^+,K^+-ATPase D137F): 34 ± 7 µM
- -fold increase in K i compared with wild-type (H^+,K^+-ATPase D137F; D137F): 3.1 fold
- Ki (H^+,K^+-ATPase N138A): 0.56 ± 0.08 µM
- -fold increase in K i compared with wild-type (H^+,K^+-ATPase N138A; N138A): 0.05 fold
- Ki (H^+,K^+-ATPase N138L): 23 ± 7 µM
- -fold increase in K i compared with wild-type (H^+,K^+-ATPase N138L; N138L): 2.1 fold
- Ki (H^+,K^+-ATPase N138I): 0.95 ± 0.23 µM
- -fold increase in K i compared with wild-type (H^+,K^+-ATPase N138I; N138I): 0.09 fold
- Ki (H^+,K^+-ATPase N138F): 320 ± 300 µM
- -fold increase in K i compared with wild-type (H^+,K^+-ATPase N138F; N138F): 29 fold
- Ki (H^+,K^+-ATPase L139A): 8.7 ± 0.7 µM
- -fold increase in K i compared with wild-type (H^+,K^+-ATPase L139A; L139A): 0.8 fold
- Ki (H^+,K^+-ATPase L139I): 2.3 ± 0.3 µM
- -fold increase in K i compared with wild-type (H^+,K^+-ATPase L139I; L139I): 0.2 fold
- Ki (H^+,K^+-ATPase L139F): 13 ± 1 µM
- -fold increase in K i compared with wild-type (H^+,K^+-ATPase L139F; L139F): 1.2 fold
- Ki (H^+,K^+-ATPase Y140A): 13 ± 1 µM
- -fold increase in K i compared with wild-type (H^+,K^+-ATPase Y140A; Y140A): 1.2 fold
- Ki (H^+,K^+-ATPase Y140L): 3.7 ± 0.4 µM
- -fold increase in K i compared with wild-type (H^+,K^+-ATPase Y140L; Y140L): 0.3 fold
- Ki (H^+,K^+-ATPase Y140I): 5 ± 0.8 µM
- -fold increase in K i compared with wild-type (H^+,K^+-ATPase Y140I; Y140I): 0.5 fold
- Ki (H^+,K^+-ATPase Y140F): 21 ± 3 µM
- -fold increase in K i compared with wild-type (H^+,K^+-ATPase Y140F; Y140F): 1.9 fold
- Ki (H^+,K^+-ATPase L141I): 7.3 ± 0.8 µM
- -fold increase in K i compared with wild-type (H^+,K^+-ATPase L141I; L141I): 0.7 fold
- Ki (H^+,K^+-ATPase A335G): 1.6 ± 0.2 µM
- -fold increase in K i compared with wild-type (H^+,K^+-ATPase A335G; A335G): 0.15 fold
- Ki (H^+,K^+-ATPase Y799A): 740 ± 170 µM
- -fold increase in K i compared with wild-type (H^+,K^+-ATPase Y799A; Y799A): 67 fold
- Ki (H^+,K^+-ATPase Y799F): 31 ± 3 µM
- -fold increase in K i compared with wild-type (H^+,K^+-ATPase Y799F; Y799F): 2.8 fold
- Ki (H^+,K^+-ATPase L809F): 110 ± 20 µM
- -fold increase in K i compared with wild-type (H^+,K^+-ATPase L809F; L809F): 10 fold
- Ki [1]: 4200 ± 2300 µM
- -fold increase in K i compared with wild-type ([1]; A335C/C813A): 382 fold
- IC50 (H^+,K^+-ATPase): 54 µM
Structure (SMILES): N#CCc1cnc2c(OCc3ccccc3)cccn12 [SCH-Me^−]
